Data as given in PMC5693942 (Scientific Reports, 2017).
Converted amounts (≈) assume the structure as drawn. Read-outs that look alike come from different tables or passages of the source.

Key:
Daphnia magna = Daphnia magna acute 48 h immobilization assay (Daphtoxkit); assay type: in vivo; settings: for Average effect (N immobile, 5 daphnids per replicate): 48 h;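 as to Average effect (N immobile, 5 daphnids per replicate): test concentrations in mg per L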
Description: Six concentration levels (5 concentrations plus control, four replicate beakers for each concentrations, five individual for each beaker) were tested. […] Each experiment was repeated in triplicate.

[1] = River water simulating microcosms (degradation of FL)
[2] = Activated sludge simulating microcosms (degradation of FL, formation of NFL); assay type: physicochemical
Description: Activated sludge microcosm experiments were conducted in the dark and aerobic conditions. Three microcosm bioreactors were investigated in duplicate. They were filled with 2 L of fresh activated sludge collected from a local wastewater treatment plant. […] Dark conditions were simulated by covering up the flask with foil. Aerobic conditions were obtained using air from BOC air cylinder and a thorough mixing was maintained using magnetic stirrers. The experiment was 24 hours long. […] Collected samples were subsequently frozen until their analysis to prevent degradation of compounds.
The compounds studied are characterized as having low volatility and therefore volatilization was not considered as a potential removal pathway in studied microcosms. Photodegradation was also not considered (not relevant) under tested activated sludge conditions. Therefore the two important degradation mechanisms to consider were biodegradation and sorption to sludge. […] However, in this study, sorption equilibrium was assumed and therefore sorption could be considered negligible. This is because sorption is assumed to be fast when compared to biological degradation.
Several reports utilized pseudo-first-order kinetics for degradation of micropollutants in activated sludge reactors[48]–[50]. […] Pseudo-first order biodegradation rate k1 [L g^−1h^−1]

Tetrahymena thermophila = test: microbe, parasite or virus in culture; assay type: cell-based
Description: The tests were performed in accordance with the protocols provided by the manufacturer. […] The tests were carried out in disposable spectrophotometric cells of 1 cm path-length, to enable the measurement of the optical density (OD) at 440 nm. […] This change in OD over the time period is used to quantify the degree of inhibition and subsequent calculation of the EC50. Each concentration was repeated in duplicate.

NCC[C@H](Oc1ccc(C(F)(F)F)cc1)c1ccccc1 [(S)-NFL]
Average effect (N immobile, 5 daphnids per replicate) (Daphnia magna; concentration 0.5): 0.25
Average effect (N immobile, 5 daphnids per replicate) (Daphnia magna; concentration 1.5): 1
Average effect (N immobile, 5 daphnids per replicate) (Daphnia magna; concentration 5): 4
Average effect (N immobile, 5 daphnids per replicate) (Daphnia magna; concentration 16): 5
Average effect (N immobile, 5 daphnids per replicate) (Daphnia magna; concentration 50): 5
EC50 (Daphnia magna; Daphnia magna, D. magna, this study, read-out: EC50_48h -immobilization): 2.8 µg/mL (≈ 9.48 µM)
Concentration ([1]; DBR (dark biotic), day 3): 0.001 ± 0.000 ng/mL
Concentration ([1]; DBR (dark biotic), day 5): 0.001 ± 0.000 ng/mL
Concentration ([1]; LAR (light abiotic), day 3): 0.002 ± 0.001 ng/mL
Concentration ([1]; LAR (light abiotic), day 4): 0.001 ± 0.000 ng/mL
Concentration ([1]; LAR (light abiotic), day 12): 0.002 ± 0.001 ng/mL
Concentration ([1]; LAR (light abiotic), day 16): 0.001 ± 0.000 ng/mL
Concentration ([1]; LBR (light biotic), day 3): 0.001 ± 0.000 ng/mL
Concentration ([1]; LBR (light biotic), day 5): 0.001 ± 0.000 ng/mL
Concentration ([2]; 10 µg L-1 microcosm, time 0): 0.127 ± 0.015 ng/mL
Concentration ([2]; 10 µg L-1 microcosm, time 0.5): 0.057 ± 0.006 ng/mL
Concentration ([2]; 10 µg L-1 microcosm, time 1.5): 0.010 ± 0.000 ng/mL
Concentration ([2]; 10 µg L-1 microcosm, time 2): 0.151 ± 0.068 ng/mL
Concentration ([2]; 10 µg L-1 microcosm, time 3): 0.222 ± 0.038 ng/mL
Concentration ([2]; 10 µg L-1 microcosm, time 5): 0.384 ± 0.053 ng/mL
Concentration ([2]; 10 µg L-1 microcosm, time 8): 0.315 ± 0.016 ng/mL
Concentration ([2]; 10 µg L-1 microcosm, time 12): 0.562 ± 0.219 ng/mL
Concentration ([2]; 10 µg L-1 microcosm, time 24): 0.510 ± 0.059 ng/mL
Concentration ([2]; 100 µg L-1 microcosm, time 0): 0.553 ± 0.146 ng/mL
Concentration ([2]; 100 µg L-1 microcosm, time 0.5): 0.538 ± 0.149 ng/mL
Concentration ([2]; 100 µg L-1 microcosm, time 1): 0.737 ± 0.154 ng/mL
Concentration ([2]; 100 µg L-1 microcosm, time 1.5): 0.981 ± 0.052 ng/mL
Concentration ([2]; 100 µg L-1 microcosm, time 2): 1.890 ± 0.622 ng/mL
Concentration ([2]; 100 µg L-1 microcosm, time 3): 2.515 ± 1.049 ng/mL
Concentration ([2]; 100 µg L-1 microcosm, time 5): 3.535 ± 1.300 ng/mL
Concentration ([2]; 100 µg L-1 microcosm, time 8): 3.844 ± 1.117 ng/mL
Concentration ([2]; 100 µg L-1 microcosm, time 12): 5.346 ± 0.464 ng/mL
Concentration ([2]; 100 µg L-1 microcosm, time 24): 5.046 ± 0.415 ng/mL
times more toxic than (S)-FL (Tetrahymena thermophila; Tetrahymena thermophila): 10 ×
EC50 (Tetrahymena thermophila; Tetrahymena thermophila, T. thermophila, this study, read-out: EC50_24h -growth): 3.8 µg/mL (≈ 12.9 µM)
EC50 (Tetrahymena thermophila; Tetrahymena thermophila, definitive test, read-out: 24hEC50): 4.48 µg/mL (≈ 15.2 µM)
EC50 (Tetrahymena thermophila; Tetrahymena thermophila, range test, read-out: 24hEC50): 1.98 µg/mL (≈ 6.71 µM)
% I (percentage inhibition) (Tetrahymena thermophila; definitive test, conc. 0.093): 7.356%
% I (percentage inhibition) (Tetrahymena thermophila; definitive test, conc. 0.279): 12.473%
% I (percentage inhibition) (Tetrahymena thermophila; definitive test, conc. 9.302): 28.891%
% I (percentage inhibition) (Tetrahymena thermophila; definitive test, conc. 15.352): 47.228%
% I (percentage inhibition) (Tetrahymena thermophila; definitive test, conc. 24.562): 80.171%
% I (percentage inhibition) (Tetrahymena thermophila; definitive test, conc. 50.660): 101.066%
% I (percentage inhibition) (Tetrahymena thermophila; definitive test, conc. 76.758): 104.371%
% I (percentage inhibition) (Tetrahymena thermophila; range test, conc. 0.005): 34.102%
% I (percentage inhibition) (Tetrahymena thermophila; range test, conc. 0.050): 7.524%
% I (percentage inhibition) (Tetrahymena thermophila; range test, conc. 0.500): 10.316%
% I (percentage inhibition) (Tetrahymena thermophila; range test, conc. 5.000): 39.684%
% I (percentage inhibition) (Tetrahymena thermophila; range test, conc. 50.000): 105.825%

NCCC(Oc1ccc(C(F)(F)F)cc1)c1ccccc1 (stereo not drawn) [NFL, norfluoxetine]
EF ([1]; DAR (dark abiotic), day 5): 0.000
EF ([1]; DBR (dark biotic), day 1): 0.000
EF ([1]; DBR (dark biotic), day 3): 0.333
EF ([1]; DBR (dark biotic), day 5): 0.417
EF ([1]; LAR (light abiotic), day 2): 0.000
EF ([1]; LAR (light abiotic), day 3): 0.358
EF ([1]; LAR (light abiotic), day 4): 0.250
EF ([1]; LAR (light abiotic), day 5): 0.000
EF ([1]; LAR (light abiotic), day 8): 0.000
EF ([1]; LAR (light abiotic), day 9): 0.000
EF ([1]; LAR (light abiotic), day 10): 0.000
EF ([1]; LAR (light abiotic), day 11): 0.000
EF ([1]; LAR (light abiotic), day 12): 0.225
EF ([1]; LAR (light abiotic), day 15): 0.000
EF ([1]; LAR (light abiotic), day 16): 0.225
EF ([1]; LBR (light biotic), day 1): 0.000
EF ([1]; LBR (light biotic), day 2): 0.000
EF ([1]; LBR (light biotic), day 3): 0.292
EF ([1]; LBR (light biotic), day 5): 0.292
EF ([2]; 10 µg L-1 microcosm, time 0): 0.784
EF ([2]; 10 µg L-1 microcosm, time 0.5): 0.663
EF ([2]; 10 µg L-1 microcosm, time 1): 0.000
EF ([2]; 10 µg L-1 microcosm, time 1.5): 0.887
EF ([2]; 10 µg L-1 microcosm, time 2): 0.750
EF ([2]; 10 µg L-1 microcosm, time 3): 0.839
EF ([2]; 10 µg L-1 microcosm, time 5): 0.810
EF ([2]; 10 µg L-1 microcosm, time 8): 0.856
EF ([2]; 10 µg L-1 microcosm, time 12): 0.749
EF ([2]; 10 µg L-1 microcosm, time 24): 0.752
enantiomeric fraction (EF) ([2]; 10 µg L^−1 reactor, after further slow removal): > 0.7
EF ([2]; 100 µg L-1 microcosm, time 0): 0.833
EF ([2]; 100 µg L-1 microcosm, time 0.5): 0.826
EF ([2]; 100 µg L-1 microcosm, time 1): 0.858
EF ([2]; 100 µg L-1 microcosm, time 1.5): 0.872
EF ([2]; 100 µg L-1 microcosm, time 2): 0.848
EF ([2]; 100 µg L-1 microcosm, time 3): 0.852
EF ([2]; 100 µg L-1 microcosm, time 5): 0.851
EF ([2]; 100 µg L-1 microcosm, time 8): 0.843
EF ([2]; 100 µg L-1 microcosm, time 12): 0.864
EF ([2]; 100 µg L-1 microcosm, time 24): 0.794
enantiomeric fraction (EF) ([2]; 100 µg L^−1 microcosm): > 0.7
